# Results: US4312874A, “Antibacterial compounds, processes for their preparation and compositions containing them” (Beecham Group Limited, priority 1979, dated 1982)
# Read-outs that look alike come from different tables or passages of the source.
# Columns and labels:
# Sarcina lutea 8340 = experiment: MIC by serial dilution in nutrient agar with 5% chocolated horse blood; assay type: cell-based; conditions: Micrococcus luteus
# [1] = tested on: Corynebacterium xerosis 9755; experiment: as above; assay type: cell-based; conditions: Table 1
# Past. multocida PA1 = experiment: MIC by agar dilution, veterinary bacteria; conditions: Pasteurella multocida, PA1, 24 h
# [2] = Serum binding by ultrafiltration; assay type: in vitro ADME; conditions: pig, 8 mcg/ml, read-out: % Bound to Pig Serum (converted)
# Method: Serum binding was assessed by ultrafiltration of procine serum containing compounds at 8 mcg/ml, and through an Amicon CF50A ultrafiltration cone. Separation of ultrafiltrate was achieved by centrifugation. Unbound concentrations of compound were measured in the ultrafiltrate by microbiological assay (B. subtilis ATCC 6633) against standards prepared in saline.
# Strep. pneumoniae CN33 = experiment: MIC by serial dilution in nutrient agar with 5% chocolated horse blood; assay type: cell-based; conditions: Streptococcus pneumoniae, Table 1
# Staph. aureus Oxford = experiment: as above; assay type: cell-based; conditions: Staphylococcus aureus; Table 1
# [3] = tested on: Staph. aureus B4 (pen resis); experiment: MIC by agar dilution, veterinary bacteria; conditions: Staphylococcus aureus, 24 h
# Ps. aeruginosa 10662 = experiment: MIC by serial dilution in nutrient agar with 5% chocolated horse blood; assay type: cell-based; conditions: Pseudomonas aeruginosa
# [4] = tested on: Erysipelothrix rhusiopathiae NCTC 8163; experiment: MIC by agar dilution, veterinary bacteria; conditions: NCTC8163, 24 h
# [5] = tested on: M. suipneumoniae NCTC 10110; experiment: in vitro MIC by serial dilution in Friis modified agarose medium; assay type: cell-based; conditions: Mesomycoplasma hyopneumoniae, NCTC10110; Table 3
# [6] = tested on: M. suipneumoniae PW/C/210; experiment: as above; assay type: cell-based; conditions: Mesomycoplasma hyopneumoniae; Table 3
# Past. haemolytica PA5 = experiment: MIC by agar dilution, veterinary bacteria; conditions: Mannheimia haemolytica, PA5, 24 h
# M. pneumoniae ATCC 15492 = experiment: in vitro MIC by serial dilution in Friis modified agarose medium; assay type: cell-based; conditions: Mycoplasmoides pneumoniae, ATCC15492; Table 3
# Strep. pyogenes B 2788 = experiment: MIC by serial dilution in nutrient agar with 5% chocolated horse blood; assay type: cell-based; conditions: Streptococcus pyogenes, B2788; Table 1
# [7] = tested on: Haemophilus influenzae Q1; experiment: as above; assay type: cell-based; conditions: Table 1
# Bacillus subtilis 6633 = experiment: as above; assay type: cell-based; conditions: Table 1
# K. aerogenes A = experiment: as above; assay type: cell-based; conditions: Klebsiella aerogenes
# M. suipneumoniae LABER = experiment: in vitro MIC by serial dilution in Friis modified agarose medium; assay type: cell-based; conditions: Mesomycoplasma hyopneumoniae; Table 3
# M. suipneumoniae UCD 1 = experiment: as above; assay type: cell-based; conditions: Mesomycoplasma hyopneumoniae, UCD1; Table 3
# Bord. bronchiseptica B08 = experiment: MIC by agar dilution, veterinary bacteria; conditions: Bordetella bronchiseptica, B08, 24 h
# M. gallisepticum S6 = experiment: in vitro MIC by serial dilution in Friis modified agarose medium; assay type: cell-based; conditions: Mycoplasmoides gallisepticum, Table 3
# Staph. aureus Russell = experiment: MIC by serial dilution in nutrient agar with 5% chocolated horse blood; assay type: cell-based; conditions: Staphylococcus aureus; Table 1
# Strep. dysgalactiae SPD1 = experiment: MIC by agar dilution, veterinary bacteria; conditions: Streptococcus dysgalactiae, SPD1, 24 h
# Staph. aureus W2827 = experiment: MIC by serial dilution in nutrient agar with 5% chocolated horse blood; assay type: cell-based; conditions: Staphylococcus aureus, Table 1
# [8] = tested on: M. suipneumoniae J2206/183b; experiment: in vitro MIC by serial dilution in Friis modified agarose medium; assay type: cell-based; conditions: Mesomycoplasma hyopneumoniae, Table 3
# M. hyosnoviae ATCC 25591 = experiment: as above; assay type: cell-based; conditions: Table 3
# [9] = tested on: Staph. aureus 152 (pen sens); experiment: MIC by agar dilution, veterinary bacteria; conditions: Staphylococcus aureus, 24 h
# M. hyorhinis ATCC 25021 = experiment: in vitro MIC by serial dilution in Friis modified agarose medium; assay type: cell-based; conditions: Mesomycoplasma hyorhinis, ATCC25021; Table 3
# E. coli E1 = experiment: MIC by agar dilution, veterinary bacteria; conditions: Escherichia coli, E1, 24 h
# [10] = tested on: Pasteurella multocida 1633; experiment: MIC by serial dilution in nutrient agar with 5% chocolated horse blood; assay type: cell-based; conditions: Table 1
# M. bovis NCTC 10131 = experiment: microbe, parasite or virus in culture; assay type: cell-based; conditions: NCTC10131
# M. suipneumoniae JF 435 = experiment: in vitro MIC by serial dilution in Friis modified agarose medium; assay type: cell-based; conditions: Mesomycoplasma hyopneumoniae, JF435; Table 3
# [11] = tested on: Haemophilus influenzae Wy21; experiment: MIC by serial dilution in nutrient agar with 5% chocolated horse blood; assay type: cell-based
# E. coli NCTC 10418 = experiment: MIC by agar dilution, veterinary bacteria; conditions: Escherichia coli, NCTC10418, 24 h
# Strep. faecalis = experiment: MIC by serial dilution in nutrient agar with 5% chocolated horse blood; assay type: cell-based; conditions: Enterococcus faecalis
# M. suipneumoniae Str. 11 = experiment: in vitro MIC by serial dilution in Friis modified agarose medium; assay type: cell-based; conditions: Mesomycoplasma hyopneumoniae, Table 3
# M. suipneumoniae MS 16 = experiment: as above; assay type: cell-based; conditions: Mesomycoplasma hyopneumoniae, MS16; Table 3
# [12] = tested on: M. bovigenitalium ATCC 14173; experiment: as above; assay type: cell-based
# P. mirabilis 889 = experiment: MIC by serial dilution in nutrient agar with 5% chocolated horse blood; assay type: cell-based; conditions: Proteus mirabilis
# [13] = tested on: Strep. suis (group D) SPS11; experiment: MIC by agar dilution, veterinary bacteria; conditions: Streptococcus suis, 24 h
# S.dublin S7 = experiment: MIC by agar dilution, veterinary bacteria; conditions: Salmonella enterica, S7, 24 h
# M.suipneumoniae NB12 = experiment: in vitro MIC by serial dilution in Friis modified agarose medium; assay type: cell-based; conditions: Mesomycoplasma hyopneumoniae, Table 3
compound,measurement,setting,value
"CC(=O)C=C(C)CC1OCC(CC2OC2C(C)C(C)O)C(O)C1O [Example 1, 1-[3R,4R-Dihydroxy-5S-(2S,3S-epoxy-5S-hydroxy-4S-methylhexyl)-2,3,5,6-tetrahydropyran-2-S-yl]-2-methylpent-2E-en-4-one]",MIC,"Sarcina lutea 8340; Table 1, read-out: MIC",> 100 µg/mL
same,MIC,[1],> 100 µg/mL
same,MIC,Past. multocida PA1,5 µg/mL
same,fraction unbound,[2],0.852
same,MIC,Strep. pneumoniae CN33,25 µg/mL
same,MIC,Staph. aureus Oxford,1 µg/mL
same,MIC,[3],10 µg/mL
same,MIC,"Ps. aeruginosa 10662; Table 1, read-out: MIC",> 100 µg/mL
same,MIC,[4],> 80 µg/mL
same,MIC,[5],> 10 µg/mL
same,MIC,[6],10 µg/mL
same,MIC,Past. haemolytica PA5,10 µg/mL
same,MIC,M. pneumoniae ATCC 15492,> 10 µg/mL
same,MIC,Strep. pyogenes B 2788,50 µg/mL
same,MIC,[7],0.5 µg/mL
same,MIC,Bacillus subtilis 6633,5 µg/mL
same,MIC,"K. aerogenes A; Table 1, read-out: MIC",> 100 µg/mL
same,MIC,M. suipneumoniae LABER,5 µg/mL
same,MIC,M. suipneumoniae UCD 1,> 10 µg/mL
same,MIC,Bord. bronchiseptica B08,> 80 µg/mL
same,MIC,M. gallisepticum S6,> 10 µg/mL
same,MIC,Staph. aureus Russell,5 µg/mL
same,MIC,Strep. dysgalactiae SPD1,80 µg/mL
same,MIC,Staph. aureus W2827,> 100 µg/mL
same,MIC,[8],> 10 µg/mL
same,MIC,M. hyosnoviae ATCC 25591,5 µg/mL
same,MIC,[9],10 µg/mL
same,MIC,M. hyorhinis ATCC 25021,10 µg/mL
same,MIC,E. coli E1,> 80 µg/mL
same,MIC,[10],5 µg/mL
same,MIC,M. bovis NCTC 10131,0.25 µg/mL
same,MIC,M. suipneumoniae JF 435,10 µg/mL
same,MIC,"[11]; Table 1, read-out: MIC",1 µg/mL
same,MIC,E. coli NCTC 10418,> 80 µg/mL
same,MIC,"Strep. faecalis; Table 1, read-out: MIC",> 100 µg/mL
same,MIC,M. suipneumoniae Str. 11,5 µg/mL
same,MIC,M. suipneumoniae MS 16,10 µg/mL
same,MIC,"[12]; Table 3, read-out: MIC",0.5 µg/mL
same,MIC,"P. mirabilis 889; Table 1, read-out: MIC",50 µg/mL
same,MIC,[13],> 80 µg/mL
same,MIC,S.dublin S7,> 80 µg/mL
same,MIC,M.suipneumoniae NB12,> 10 µg/mL
"CCC(=O)C=C(C)CC1OCC(CC2OC2C(C)C(C)O)C(O)C1O [Example 2, 1-[3R,4R-Dihydroxy-5S-(2S,3S-epoxy-5-S-hydroxy-4S-methylhexyl)tetrahydropyran-2S-yl]-2-methylhex-2E-en-4-one]",MIC,Sarcina lutea 8340,> 50 µg/mL
same,MIC,[1],25 µg/mL
same,MIC,Past. multocida PA1,0.625 µg/mL
same,fraction unbound,[2],0.739
same,MIC,Strep. pneumoniae CN33,12.5 µg/mL
same,MIC,Staph. aureus Oxford,1.2 µg/mL
same,MIC,[3],0.625 µg/mL
same,MIC,Ps. aeruginosa 10662,> 50 µg/mL
same,MIC,[4],> 40 µg/mL
same,MIC,[5],5 µg/mL
same,MIC,[6],2.5 µg/mL
same,MIC,Past. haemolytica PA5,5 µg/mL
same,MIC,M. pneumoniae ATCC 15492,> 10 µg/mL
same,MIC,Strep. pyogenes B 2788,25 µg/mL
same,MIC,[7],0.2 µg/mL
same,MIC,Bacillus subtilis 6633,2.5 µg/mL
same,MIC,K. aerogenes A,> 50 µg/mL
same,MIC,M. suipneumoniae LABER,2.5 µg/mL
same,MIC,M. suipneumoniae UCD 1,5 µg/mL
same,MIC,Bord. bronchiseptica B08,> 40 µg/mL
same,MIC,M. gallisepticum S6,> 10 µg/mL
same,MIC,Staph. aureus Russell,2.5 µg/mL
same,MIC,Strep. dysgalactiae SPD1,20 µg/mL
same,MIC,Staph. aureus W2827,2.5 µg/mL
same,MIC,[8],5 µg/mL
same,MIC,M. hyosnoviae ATCC 25591,2.5 µg/mL
same,MIC,[9],0.312 µg/mL
same,MIC,M. hyorhinis ATCC 25021,2.5 µg/mL
same,MIC,E. coli E1,> 40 µg/mL
same,MIC,[10],2.5 µg/mL
same,MIC,M. bovis NCTC 10131,0.1 µg/mL
same,MIC,M. suipneumoniae JF 435,5 µg/mL
same,MIC,[11],0.5 µg/mL
same,MIC,E. coli NCTC 10418,> 40 µg/mL
same,MIC,Strep. faecalis,> 50 µg/mL
same,MIC,M. suipneumoniae Str. 11,2.5 µg/mL
same,MIC,M. suipneumoniae MS 16,2.5 µg/mL
same,MIC,[12],0.1 µg/mL
same,MIC,P. mirabilis 889,> 50 µg/mL
same,MIC,[13],> 40 µg/mL
same,MIC,S.dublin S7,> 40 µg/mL
same,MIC,M.suipneumoniae NB12,2.5 µg/mL
"CCCCC(=O)C=C(C)CC1OCC(CC2OC2C(C)C(C)O)C(O)C1O [Example 3, 1-[3R,4R-Dihydroxy-5S-(2S,3S-epoxy-5S-hydroxy-4S-methylhexyl)tetrahydropyran-2S-yl]-2-methyloct-2E-en-4-one]",MIC,"Sarcina lutea 8340; Table 1, read-out: MIC",> 100 µg/mL
same,MIC,[1],100 µg/mL
same,MIC,Past. multocida PA1,2.5 µg/mL
same,fraction unbound,[2],0.469
same,MIC,Strep. pneumoniae CN33,5 µg/mL
same,MIC,Staph. aureus Oxford,1 µg/mL
same,MIC,[3],2.5 µg/mL
same,MIC,"Ps. aeruginosa 10662; Table 1, read-out: MIC",> 100 µg/mL
same,MIC,[4],> 80 µg/mL
same,MIC,[5],1 µg/mL
same,MIC,[6],0.5 µg/mL
same,MIC,Past. haemolytica PA5,20 µg/mL
same,MIC,M. pneumoniae ATCC 15492,10 µg/mL
same,MIC,Strep. pyogenes B 2788,2.5 µg/mL
same,MIC,[7],0.2 µg/mL
same,MIC,Bacillus subtilis 6633,0.5 µg/mL
same,MIC,"K. aerogenes A; Table 1, read-out: MIC",> 100 µg/mL
same,MIC,M. suipneumoniae LABER,0.5 µg/mL
same,MIC,M. suipneumoniae UCD 1,1 µg/mL
same,MIC,Bord. bronchiseptica B08,> 80 µg/mL
same,MIC,M. gallisepticum S6,> 10 µg/mL
same,MIC,Staph. aureus Russell,1 µg/mL
same,MIC,Strep. dysgalactiae SPD1,10 µg/mL
same,MIC,Staph. aureus W2827,2.5 µg/mL
same,MIC,[8],1 µg/mL
same,MIC,M. hyosnoviae ATCC 25591,0.25 µg/mL
same,MIC,[9],2.5 µg/mL
same,MIC,M. hyorhinis ATCC 25021,0.5 µg/mL
same,MIC,E. coli E1,> 80 µg/mL
same,MIC,[10],0.5 µg/mL
same,MIC,M. bovis NCTC 10131,0.025 µg/mL
same,MIC,M. suipneumoniae JF 435,1 µg/mL
same,MIC,"[11]; Table 1, read-out: MIC",0.2 µg/mL
same,MIC,E. coli NCTC 10418,> 80 µg/mL
same,MIC,"Strep. faecalis; Table 1, read-out: MIC",> 100 µg/mL
same,MIC,M. suipneumoniae Str. 11,0.5 µg/mL
same,MIC,M. suipneumoniae MS 16,0.5 µg/mL
same,MIC,"[12]; Table 3, read-out: MIC",0.05 µg/mL
same,MIC,"P. mirabilis 889; Table 1, read-out: MIC",100 µg/mL
same,MIC,[13],> 80 µg/mL
same,MIC,S.dublin S7,> 80 µg/mL
same,MIC,M.suipneumoniae NB12,1 µg/mL
